Measurements: patent publication US20080248097A1, “POLYMERIC MICELLES FOR COMBINATION DRUG DELIVERY” (priority 2007, published 2008)
Like-named read-outs stand apart in the source and are kept apart here.

Legend:
[1] = test system: human small cell lung cancer SBC-3 cells; conditions: different ADR concentrations and exposure times
Excerpt: As a system releasing bioactive molecules, the micelles are required to maintain the ability of the loaded ADR to suppresses cell growth by binding with DNA strands in the cell nucleus.

[2] = test system: tumor; test: Cancer treatment efficacy and toxicity in tumor-bearing mice (Table 2, therapeutic window); conditions: for Complete Cure / Toxic Death: mice; for Complete Cure: cured/animals; for Toxic Death: deaths/animals
Experimental: (§1) Cancer treatment efficacy of the pH-sensitive micelles was evaluated by comparing the therapeutic windows of small molecule drugs (doxorubicin) and the doxorubicin-conjugated micelles.
(§2) The CDF1 mice (female, n=6), when the tumor volume reached about 100 mm^3, were injected with DOX or the micelles in a volume of 0.1 mL/10 g body weight for the experiments. The dose was either 10 mg/kg for DOX or the micelles (DOX equivalent).
(§3) Cancer treatment efficacy of the pH-sensitive micelles was evaluated by comparing the therapeutic windows of small molecule drugs (doxorubicin) and the doxorubicin-conjugated micelles. Therapeutic windows were determined based on the ratio of ED50 to TD.

[3] = test system: human small cell lung cancer SBC-3 cells; test: Confocal laser scanning microscopy of intracellular localization; type: cell-based; conditions: 10 μg mL−1
Experimental: FIG. 4 illustrates CLSM images of human small cell lung cancer SBC-3 cells incubated with ADR and PEG-p(Asp-Hyd-ADR) micelles (10 μg mL^−1). […] A series of optical sections was stacked (Z-stacked) by moving the focal plane of the instrument step-by-step through the depth of the cell.

[4] = Biodistribution and plasma levels in tumor-bearing mice; conditions: after 10 hours; 10 mg/kg, CDF1 mice
Experimental: as §2

[5] = test system: tumor; conditions: mouse, in vivo
Experimental: as §1, §2, §3

[6] = DMEM with 10% fetal bovine serum, 24 hours, 100 μg mL−1 ADR equivalent, excitation 485 nm

Compound	growth-inhibition effect [1]	therapeutic window compared to standard doxorubicin administration ([2]; based on treatment-to-control (T/C) ratio, ratio of ED50 to TD)	Complete Cure ([2]; dose 5 mg/kg)	Complete Cure ([2]; dose 10 mg/kg)	Complete Cure ([2]; dose 20 mg/kg)	Complete Cure ([2]; dose 40 mg/kg)	fluorescence intensity in cells ([3]; after 1 hour exposure)	fluorescence intensity in cells ([3]; after 24 hours incubation)	intracellular localization of fluorescence ([3]; after 24 hours incubation)	dose remained in the blood [4]	Toxic Death ([2]; dose 5 mg/kg)	Toxic Death ([2]; dose 10 mg/kg)	Weight change on day 30 (%) ([5]; 5 mg/kg)	Weight change on day 30 (%) ([5]; 10 mg/kg)	fluorescence intensity at 590 nm [6]
poly(ethylene glycol)poly(aspartate-hydrazone-adriamycin) [DOX-Micelle]	gradually approach those of free ADR	broader therapeutic window	0/6	0/6	2/6	3/6	no such increase was detected	considerable fluorescence change	dot-shaped within the cytoplasm						
COc1cccc2c1C(=O)c1c(O)c3c(c(O)c1C2=O)C[C@@](O)(C(=O)CO)C[C@@H]3O[C@H]1C[C@H](N)[C@H](O)[C@H](C)O1 [DOX, doxorubicin]			0/6	1/6			increase in fluorescence intensity		only accumulated in cell nuclei	almost none	0/6	0/6	−13.35 ± 0.59	−16.84 ± 1.26	intense fluorescence
